The assay has as its target CREB-binding protein (Homo sapiens, UniProt Q92793). The assay is described as follows: CBP (Bromodomain) AlphaScreen Assay. The method, then:
Assays were performed with minimal modifications from the manufacturer's protocol (PerkinElmer , USA). All reagents were diluted in 50 mM 4-(2-hydroxyethyl)-1-piperazineethanesulfonic acid (HEPES), 150 mM NaCl, 0.1% w/v bovine serum albumin (BSA), 0.01% w/v Tween 20, pH 7.5 and allowed to equilibrate to room temperature prior to addition to plates. After addition of AlphaScreen acceptor beads to master solutions, all subsequent steps were performed under low light conditions. A 2× solution of components with final concentrations of CBP bromodomain at 40 nM, Ni-coated Acceptor Bead at 10 μg/ml, and 7.2 nM biotinylated-Int-2 was added in 10 μL to 384-well plates (AlphaPlate-384, PerkinElmer , USA). Plates were spun down at 150×g, 100 nL of compound in dimethyl sulfoxide (DMSO) from stock plates were added by pin transfer using a Janus Workstation (PerkinElmer , USA). The streptavidin-coated donor beads ([…] final) were added as with previous the solution in a 2×10 μL volume. Following this addition, plates were sealed with foil to prevent light exposure and evaporation. The plates were spun down again at 150×g. Plates were incubated at room temperature for 1 hour and then read on a 2104 EnVision Multilabel Plate Reader (PerkinElmer , USA) using the manufacturer's protocol.
In general terms: In Alpha technology, singlet oxygen from a donor bead excites a nearby acceptor bead.

The IC50 is the point on the concentration scale where inhibition reaches its midpoint. Read a low IC50 as inhibition by little substance.

Chain of CREB-binding protein (Q92793 whole entry): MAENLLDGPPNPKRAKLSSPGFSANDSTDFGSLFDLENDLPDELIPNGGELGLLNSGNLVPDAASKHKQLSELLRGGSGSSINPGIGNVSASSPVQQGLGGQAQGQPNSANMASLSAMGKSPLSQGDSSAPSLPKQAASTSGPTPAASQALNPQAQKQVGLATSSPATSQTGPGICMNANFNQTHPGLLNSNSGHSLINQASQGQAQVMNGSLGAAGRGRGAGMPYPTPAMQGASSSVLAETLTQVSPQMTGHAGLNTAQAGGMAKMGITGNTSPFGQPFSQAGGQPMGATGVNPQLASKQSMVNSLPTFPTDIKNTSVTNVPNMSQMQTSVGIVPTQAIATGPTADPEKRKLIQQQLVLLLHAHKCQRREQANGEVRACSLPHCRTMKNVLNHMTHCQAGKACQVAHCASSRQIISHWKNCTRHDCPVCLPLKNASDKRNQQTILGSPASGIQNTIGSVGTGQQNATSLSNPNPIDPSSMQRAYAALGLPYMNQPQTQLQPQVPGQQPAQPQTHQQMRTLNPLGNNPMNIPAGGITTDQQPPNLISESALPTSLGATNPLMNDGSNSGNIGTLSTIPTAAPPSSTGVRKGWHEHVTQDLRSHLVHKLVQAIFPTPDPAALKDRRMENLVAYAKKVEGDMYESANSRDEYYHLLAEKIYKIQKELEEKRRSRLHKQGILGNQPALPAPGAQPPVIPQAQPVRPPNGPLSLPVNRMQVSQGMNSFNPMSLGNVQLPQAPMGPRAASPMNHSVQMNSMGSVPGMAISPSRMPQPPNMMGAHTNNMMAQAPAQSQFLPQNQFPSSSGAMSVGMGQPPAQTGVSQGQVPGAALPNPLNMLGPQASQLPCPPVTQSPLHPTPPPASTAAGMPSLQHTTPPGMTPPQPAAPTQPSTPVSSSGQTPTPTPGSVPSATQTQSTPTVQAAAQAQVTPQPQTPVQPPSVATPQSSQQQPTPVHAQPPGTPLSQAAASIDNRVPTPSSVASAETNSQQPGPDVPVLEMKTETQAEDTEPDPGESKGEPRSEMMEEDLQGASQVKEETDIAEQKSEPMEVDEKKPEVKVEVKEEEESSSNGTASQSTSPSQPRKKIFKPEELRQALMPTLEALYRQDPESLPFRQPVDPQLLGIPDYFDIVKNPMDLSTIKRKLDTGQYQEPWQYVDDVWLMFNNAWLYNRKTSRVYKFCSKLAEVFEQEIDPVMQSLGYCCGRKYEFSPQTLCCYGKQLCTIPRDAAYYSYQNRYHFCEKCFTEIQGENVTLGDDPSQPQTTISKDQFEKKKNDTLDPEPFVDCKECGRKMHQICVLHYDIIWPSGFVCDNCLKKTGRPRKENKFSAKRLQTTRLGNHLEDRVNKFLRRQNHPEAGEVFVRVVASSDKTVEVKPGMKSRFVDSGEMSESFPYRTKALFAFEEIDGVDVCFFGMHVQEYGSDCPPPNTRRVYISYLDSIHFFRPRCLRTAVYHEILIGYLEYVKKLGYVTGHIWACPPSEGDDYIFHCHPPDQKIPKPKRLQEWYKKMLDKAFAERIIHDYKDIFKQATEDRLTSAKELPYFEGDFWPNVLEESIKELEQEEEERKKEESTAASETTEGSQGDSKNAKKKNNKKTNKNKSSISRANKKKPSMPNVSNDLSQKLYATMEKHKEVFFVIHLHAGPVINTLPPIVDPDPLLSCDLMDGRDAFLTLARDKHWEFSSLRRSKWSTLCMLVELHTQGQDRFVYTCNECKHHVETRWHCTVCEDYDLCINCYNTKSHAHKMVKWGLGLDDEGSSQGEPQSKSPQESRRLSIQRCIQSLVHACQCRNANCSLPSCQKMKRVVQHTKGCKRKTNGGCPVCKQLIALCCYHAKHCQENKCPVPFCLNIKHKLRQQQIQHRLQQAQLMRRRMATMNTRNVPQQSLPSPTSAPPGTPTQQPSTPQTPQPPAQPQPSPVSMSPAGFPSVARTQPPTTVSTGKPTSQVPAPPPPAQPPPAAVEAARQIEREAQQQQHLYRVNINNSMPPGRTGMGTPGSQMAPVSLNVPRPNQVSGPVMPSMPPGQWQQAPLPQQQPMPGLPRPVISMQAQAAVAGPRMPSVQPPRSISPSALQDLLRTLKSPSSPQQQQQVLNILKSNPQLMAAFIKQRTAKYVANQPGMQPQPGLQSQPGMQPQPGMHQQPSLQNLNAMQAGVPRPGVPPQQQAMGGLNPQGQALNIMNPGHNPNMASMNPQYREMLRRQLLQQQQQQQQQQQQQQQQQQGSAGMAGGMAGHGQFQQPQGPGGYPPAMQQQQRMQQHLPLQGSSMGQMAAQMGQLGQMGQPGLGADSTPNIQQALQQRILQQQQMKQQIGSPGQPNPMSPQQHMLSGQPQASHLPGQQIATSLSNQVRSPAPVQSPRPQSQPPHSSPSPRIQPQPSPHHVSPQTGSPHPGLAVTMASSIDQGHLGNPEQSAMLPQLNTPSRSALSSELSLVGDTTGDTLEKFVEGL

Take `Cc1noc(C)c1-c1ccc2nc(-c3ccc(N4CCN(C(=O)CCCCCCCCCCCNc5ccc6c(c5)C(=O)N(C5CCC(=O)NC5=O)C6=O)CC4)cc3)c(NC3CCCCC3)n2c1` (stereo unspecified) [US12496348, Compound 1]: the half-inhibitory concentration (IC50) turned out to be 18.9 µM. In other words, the double-digit micromolar range.

The values are drawn from BindingDB's records for patent US12496348 (Dana-Farber Cancer Institute, 2025).
